This note sets out measurements from patent US20220089646A1 (THE UNIVERSITY OF QUEENSLAND, priority 2019, published 2022).

By IC50 is commonly meant the concentration needed to halve the response being measured. A higher IC50 goes with lower potency. For orientation: IC80 means the concentration at which the effect reaches the 80% level. Higher therefore signals weaker potency.

One assay concerns the target KOP (Homo sapiens, UniProt P41145). As to the kind of experiment: Inhibition of Forskolin-induced cAMP production in HEK-KOP cells (AlphaScreen, DP series). Conditions: for IC80: approximate IC80, 'EC anything' protocol; for cAMP response, HEK-KOP: concentration-response curve, % cAMP. It counts as cell-based. As to the method:
DP-7-11 and DP-7-12 were assessed for the ability to inhibit cAMP production in HEK-DOP and HEK KOP cells.
The HEK-293 DOP (HEK-DOP) and HEK-293 KOP (HEK-KOP) cell lines were cultured in a T75 flask, in Dulbeco's Modified Eagle's Medium (DMEM) complete with 10% (v/v) fetal bovine serum (FBS) and 1% (v/v) Geneticin. Cells were incubated in a humidified atmosphere of 37° C. (95% air and 5% CO2). Cells were passaged at 80-90% confluence and media was changed every two days.
Stimulation buffer and Lysis buffer were prepared fresh on the day of each assay. Stimulation buffer contained 19.5 mL Hanks buffered saline solution, Bovine serum albumin (BSA) 0.1% (w/v), 0.5 mM 3-Isobutyl-1-methylxanthine (IBMX) and 5 mM HEPES (4-(2-hydroxyethyl)-1-piperazineethanesulfonic acid). Lysis buffer contained 19 mL Mili-Q H2O, BSA 0.1% (w/v), 0.3% (v/v) 10% Tween-20, and 5 mM HEPES. Both buffers were adjusted to pH 7.4 with NaOH.
The cAMP standard dilution series was prepared from the 50 μM cAMP standard solution provided by the cAMP assay kit. The standard solution was vortexed before being serially diluted to provide a concentration range of 5×10^−6 M to 5×10^−11 M in ½ Log intervals.
For this assay, Forskolin was optimised at 50 μM/well. 25 mM stocks were used to prepare 0.2 mM Forskolin. The concentration of Forskolin prepared was 4 times the required concentration in the well to account for further dilution in the well. 0.1 mM Forskolin solution was then made from this and used to dilute the peptide solutions.
DP-7-11 and DP-7-12 provided in powder form and reconstituted to 10 mM stock solutions and diluted to 1 mM working stocks using Mili-Q H2O. Each peptide solution was serially diluted to give concentrations of 1×10^−6 to 3×10^−7 M with stimulation buffer.
Stimulation buffer was added to the 0.2 mM Forskolin solution in a 1:1 ratio to prepare the Forskolin only treatment solution. This was the positive control. Stimulation buffer was used as the negative control.
Cells were harvested from two T75 flasks on the day of experimentation. Identical protocol was used for both DOP and KOP cells. The cells were first removed from the incubator and washed with Versene®. The cells were then incubated in 2 mL of Versene® at 37° C. for 5 minutes. Following this, the mixture was made up to 5 mL with Versene® in a centrifuge tube. This was centrifuged at 1300 rpm for 2 minutes at 23° C. The supernatant was then decanted and the cells resuspended in 100 μL stimulation buffer for counting. A hemocytometer was used to count the cells. This assay required the concentration of cells to be 13300 cells/μL
This method was used to conduct all cAMP Alphascreen assays. The acceptor bead mixture consisted of acceptor beads and stimulation buffer mixed according to the ratio 1:35 given in the kit. From this, the acceptor beads mixture was used to prepare separate mixtures for the cAMP standard curve and for the treatment wells of the assay. For the treatment wells, the beads were mixed with cells in a 1:1 ratio. For the cAMP standard curve, the beads were mixed with more stimulation buffer in a 1:1 ratio. The donor bead mixture consisted of donor beads, biotinylated cAMP and lysis buffer mixed in the ratio 1:3:300.
The DP series compounds were assayed as follows: The assay was performed using a 96 well ½ area plate. The different cAMP standard solutions (3 μL/well) were plated in duplicate. The different concentrations of drug (3 μL/well), and control solutions (3 μL/well) were plated in triplicate. […]
On the technique in general: Changes in cAMP serve as a functional read-out for many G protein-coupled receptors.

A further assay concerns the target DOP (Homo sapiens, UniProt P41143). Put plainly: cAMP assay with naloxone in HEK-DOP cells. It counts as cell-based. To be noted: naloxone 100 μM/well; for Mean cAMP response with naloxone: HEK-DOP, peptide at approximate IC80; for Naloxone reversal of cAMP inhibition through DOP: p<0.05. As to the method:
The preparation of buffers, cAMP standard curve, bead solutions were carried out identically to the agonist assay.
Forskolin had been optimised at 50 μM/well. Thus, the 25 mM stocks were used to prepare 300 μL of 0.3 mM Forskolin. The concentration of Forskolin prepared was 6 times the required concentration in the well to account for further dilution in the well. Forskolin solution was then made from this and used to dilute the drug solutions.
Approximate IC80 values were used for DP-7-11 and DP-7-12 to determine the ability of naloxone to reverse agonist inhibitory effect.
The desired concentration of naloxone was 100 μM/well. Thus, 100 μL of 600 μM naloxone was made up from 100 mM stock. This was 6 times the desired in-well concentration to account for further dilution in the well by Forskolin, peptide, cells and acceptor bead solutions.
Stimulation buffer was added to the 0.3 mM Forskolin solution to prepare the Forskolin only treatment solution as the positive control. Stimulation buffer used as the negative control.
The DP series compounds were assayed as follows: The different cAMP standard solutions (3 μL/well) were plated in duplicate. Naloxone solution was then plated (1 μL/well) for each treatment (DP-7-11, DP-7-12, Forskolin only and stimulation buffer) in triplicate. In the same way, stimulation buffer was plated (1 μL/well) for the same number of wells. This made up two sets of wells, antagonist and non-antagonist. Following this, the acceptor bead and cell mixture (3 μL/well) was added to the treatment wells. The plates were then covered and centrifuged at 280 g for 30 seconds before incubation on an orbital shaker for 30 minutes at room temperature. The acceptor bead mixture (3 μL/well) was then added to the cAMP standard curve wells, whilst the drug mixed with Forskolin solutions (3 μL/well) were added to the respective treatment wells in triplicate. Again, the plates were centrifuged at 280 g for 30 seconds, then covered and incubated on the orbital shaker for another 30 minutes. Finally, the donor bead mixture (10 μL/well) was added to each well. This was incubated at room temperature overnight on the orbital shaker.
The Ensight® Multimode Plate Reader was used to quantify the fluorescence units of each plate. Before reading, each plate was centrifuged at 280 g for 30 seconds. Using GraphPad Prism7® Software, cAMP concentrations were determined from the fluorescence data by fit spline/LOWESS analysis. The cAMP standard curve was used for interpolation at this point. The cAMP concentrations were then normalized to the highest cAMP concentration recorded and analyzed by one-way ANOVA for multiple comparisons. This analysis was corrected for multiple comparisons using Bonferroni. […]

*1 amine or outer side, *2 acyl side, *3 side chain or, on linkers, in order; H or OH if unused. Where a SMILES comes first, the peptide text is derived from it. Bridges are numbered along the chain shown (N, C = ends). [ ]: non-standard residue; d: D form. NHCH2CMe2S = CC(C)(CN[*:1])S[*:2]

Chain of KOP (P41145 whole entry): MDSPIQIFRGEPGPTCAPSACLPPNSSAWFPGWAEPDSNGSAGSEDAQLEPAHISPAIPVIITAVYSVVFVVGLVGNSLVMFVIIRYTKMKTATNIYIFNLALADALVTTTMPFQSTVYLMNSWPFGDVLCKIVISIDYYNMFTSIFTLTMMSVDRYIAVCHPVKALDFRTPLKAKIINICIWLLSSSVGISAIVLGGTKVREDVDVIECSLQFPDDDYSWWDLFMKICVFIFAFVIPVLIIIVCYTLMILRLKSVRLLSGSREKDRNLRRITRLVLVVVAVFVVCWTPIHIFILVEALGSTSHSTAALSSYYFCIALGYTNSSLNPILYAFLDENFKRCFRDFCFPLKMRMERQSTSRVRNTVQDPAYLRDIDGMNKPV
Chain of DOP (P41143 whole entry): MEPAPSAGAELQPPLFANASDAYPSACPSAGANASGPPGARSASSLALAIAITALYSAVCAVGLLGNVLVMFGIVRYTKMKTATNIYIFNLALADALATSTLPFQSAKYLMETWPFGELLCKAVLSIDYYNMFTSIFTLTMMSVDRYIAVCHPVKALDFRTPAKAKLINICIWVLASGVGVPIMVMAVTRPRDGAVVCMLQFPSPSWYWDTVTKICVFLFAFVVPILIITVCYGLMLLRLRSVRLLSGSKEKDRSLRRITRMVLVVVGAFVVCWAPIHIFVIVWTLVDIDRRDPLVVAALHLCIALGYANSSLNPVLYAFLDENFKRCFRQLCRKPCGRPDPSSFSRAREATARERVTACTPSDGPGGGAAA

`CC1(C)CNC(=O)C[C@H](C(=O)N[C@@H](CCCNC(=N)N)C(=O)N[C@@H](CCCNC(=N)N)C(N)=O)NC(=O)[C@H](Cc2ccccc2)NC(=O)CNC(=O)[C@@H](NC(=O)[C@@H](N)Cc2ccc(O)cc2)CSS1` [DP-7-11, c(Tyr-SSa-Gly-Phe-D(Asp)-Arg-Arg)]: the midpoint of inhibition against KOP (Forskolin 50 μM/well, 95% CI in brackets), the IC50, lay at 5.06 nM. At KOP, it took 30 nM to reach the 80% level (IC80) and the “cAMP response, HEK-KOP” value was found to be 13.73%. Moreover, on DOP, the “Mean cAMP response with naloxone” value was found to be 77.18% and the “Naloxone reversal of cAMP inhibition through DOP” value was “reversed by naloxone”.
With `CC1(C)CNC(=O)C[C@@H](NC(=O)[C@@H](N)Cc2ccc(O)cc2)C(=O)NCC(=O)N[C@@H](Cc2ccccc2)C(=O)N[C@H](C(=O)N[C@@H](CCCNC(=N)N)C(=O)N[C@@H](CCCNC(=N)N)C(N)=O)CSS1` [DP-7-12, c(Tyr-D(Asp)-Gly-Phe-SSa-Arg-Arg)] (H-Y[dD]GFCRR-NH2; linker 2-5 via NHCH2CMe2S), at KOP, the IC80 came to 28.8 nM and the “cAMP response, HEK-KOP” value was determined as 25.88%. Further, on DOP, the “Mean cAMP response with naloxone” value came out at 62.68% and the “Naloxone reversal of cAMP inhibition through DOP” value is “reversed by naloxone”.
